Data reported in US20050197338A1, “Substituted pyrazole urea compounds for the treatment of inflammation” (priority 2003, published 2005).

Target: T1, Rat IKK-2 (Rattus norvegicus, UniProt Q9QY78)
T1 sequence (Q9QY78 1-757): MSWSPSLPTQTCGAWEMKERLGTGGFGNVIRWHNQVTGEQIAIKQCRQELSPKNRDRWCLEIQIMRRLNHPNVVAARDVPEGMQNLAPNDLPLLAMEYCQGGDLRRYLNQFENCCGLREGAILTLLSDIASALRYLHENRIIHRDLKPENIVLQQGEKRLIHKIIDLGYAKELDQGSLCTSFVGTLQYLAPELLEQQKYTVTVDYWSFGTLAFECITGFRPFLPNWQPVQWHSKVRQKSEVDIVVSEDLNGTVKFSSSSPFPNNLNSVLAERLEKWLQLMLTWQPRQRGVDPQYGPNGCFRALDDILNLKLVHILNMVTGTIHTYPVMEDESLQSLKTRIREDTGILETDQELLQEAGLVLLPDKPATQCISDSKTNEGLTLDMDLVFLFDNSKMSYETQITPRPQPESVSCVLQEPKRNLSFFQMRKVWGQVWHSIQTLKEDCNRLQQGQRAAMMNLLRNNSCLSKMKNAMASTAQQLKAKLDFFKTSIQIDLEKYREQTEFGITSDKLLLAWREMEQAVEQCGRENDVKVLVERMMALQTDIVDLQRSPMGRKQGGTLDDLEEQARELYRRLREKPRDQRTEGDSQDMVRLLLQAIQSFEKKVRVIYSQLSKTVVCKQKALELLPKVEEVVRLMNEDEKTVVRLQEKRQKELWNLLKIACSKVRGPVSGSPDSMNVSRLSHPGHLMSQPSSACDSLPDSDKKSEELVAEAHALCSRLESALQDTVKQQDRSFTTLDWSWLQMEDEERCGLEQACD
Experiment: Rat IKK-2 enzyme assay
Assay type: biochemical
Conditions: read-out: IC50 (μM) rIKK-2
Method: Kinase activity was measured using a biotinylated […] peptide (Gly-Leu-Lys-Lys-Glu-Arg-Leu-Leu-Asp-Asp-Arg-His-Asp-Ser32-Gly-Leu-Asp-Ser36-Met-Lys-Asp-Glu-Glu) (American Peptide Co.). 20 μL of the standard reaction mixture contained 5 μM biotinylated IκBα peptide, 0.1 μCi/reaction [γ-^33P] ATP (Amersham) (about 1×10^5 cpm), 1 μM ATP (Sigma), 1 mM DTT (Sigma), 2 mM MgCl2 (Sigma), 2 mM MnCl2 (Sigma), 10 mM NaF (Sigma), 25 mM Hepes (Sigma) buffer, pH. 7.6 and 20 μL enzyme solution (50 nM/rxn or 200 ng/rxn) and 10 μL inhibitor in a final volume of 50 μL. After incubation at 25° C. for 60 min, 150 μL resin was added to each well to stop the reaction. Resin was mixed and allowed to settle for 1 h and 50 μL of supernatant was removed to a Micolite 2 flat bottom plate (Dynex). 150 μL of scintillation fluid (Microscint 40) (Packard) was added to each well. Incorporation of [γ-^33P] ATP was measured using a Top-Count NXT (Packard).

Going from `NC(=O)Nc1cn(-c2cccc(C(F)(F)F)c2)nc1C(N)=O` [Example 317, 1-(3-trifluoromethyl-phenyl)-4-ureido-1H-pyrazole-3-carboxylic acid amide] to `NC(=O)Nc1cn(-c2cccc(Cl)c2F)nc1C(N)=O` [Example 273, 1-(3-chloro-2-fluoro-phenyl)-4-ureido-1 h-pyrazole-3-carboxylic acid amide], the IC50 falls from 1.46 µM to 0.203 µM (7.2-fold).

For `NC(=O)Nc1cn(-c2cccc3c2sc2ccccc23)nc1C(N)=O` [Example 324, 4-[(aminocarbonyl)amino]-1-dibenzo[b,d]thien-4-yl-1H-pyrazole-3-carboxamide], the IC50 was > 20 µM.
